# Tested on: MaGSTe3
# Test: GSH conjugation, absorbance at […] nm, Michaelis-Menten fit
# Format: biochemical, Monochamus alternatus
# Conditions: co-substrate GSH (concentration not given); 100 mM PBS; CDNB varied, printed range 0–400 mM
smiles,measurement,value
"O=[N+]([O-])c1ccc(Cl)c([N+](=O)[O-])c1 [1-chloro-2,4-dinitrobenzene]",Km,1240 ± 210 µM

# Source: paper PMC10743883, “Identification and Functional Analysis of an Epsilon Class Glutathione S-Transferase Gene Associated with α-Pinene Adaptation in Monochamus alternatus” (International Journal of Molecular Sciences, 2023)
